US20250375398A1
Read-outs that look alike come from different tables or passages of the source.

What was measured:
[1] = tested on: SARS-CoV-2 virus [B.1.351]; format: in vivo, mice
SARS-CoV-2 [2] = format: cell-based; settings: remdesivir alone, dose-dependent; control around 10^6 TCID50/mL
SARS-CoV-2 [3] = experiment: microbe, parasite or virus in culture
[4] = tested on: SARS-CoV-2 virus [B.1.351]; format: in vivo, mice; settings: day 4
SARS-CoV-2 [5] = settings: for host cell viability, normalized to remdesivir alone (5 μM) / host cell viability (in words): infected Vero E6, 72 hours

Structure (SMILES): CCC(CC)COC(=O)[C@H](C)N[P@](=O)(OC[C@H]1O[C@@](C#N)(c2ccc3c(N)ncnn23)[C@H](O)[C@@H]1O)Oc1ccccc1 [Remdesivir]
- infectious titers in lung, in words ([1]; remdesivir 25 mg/kg daily intraperitoneally, day 4 post infection): strongest antiviral effect in reducing infectious titer
- infectious titers in lung (plaque forming unit per mg of tissues), in words ([1]; remdesivir 5, 10 or 25 mg/kg daily intraperitoneally from day 1 post infection, day 4): dose-dependent effect on reducing infectious titers
- viral titer of SARS-CoV-2 (SARS-CoV-2 [2]): zero
- viability at 5 µM (SARS-CoV-2 [3]; Severe acute respiratory syndrome coronavirus 2, Vero C1008, 72 h, read-out: host cell viability, normalized to remdesivir alone (5 μM)): 100%
- viability at 1.25 µM (SARS-CoV-2 [3]; Severe acute respiratory syndrome coronavirus 2, Vero C1008, read-out: host cell viability): 26%
- infectious titers in lung compared to vehicle, in words ([4]; Remdesivir 10 mg/kg daily from day 1 post infection): did not impact infectious titers compared to vehicle
- mice in which all infectious titers in lung were eliminated ([4]; Remdesivir 25 mg/kg daily from day 1 post infection): 4 out of 7
- host cell viability, normalized to remdesivir alone (5 μM) (SARS-CoV-2 [5]; hypericin 0 μM, remdesivir 0.3125 μM): 19.8%
- host cell viability, normalized to remdesivir alone (5 μM) (SARS-CoV-2 [5]; hypericin 0 μM, remdesivir 0.625 μM): 21.9%
- host cell viability, normalized to remdesivir alone (5 μM) (SARS-CoV-2 [5]; hypericin 0 μM, remdesivir 1.25 μM): 25.2%
- host cell viability, normalized to remdesivir alone (5 μM) (SARS-CoV-2 [5]; hypericin 0 μM, remdesivir 2.5 μM): 38.1%
- host cell viability (in words) (SARS-CoV-2 [5]; remdesivir (5 μM) alone): dose-dependently improved host cell viability

Structure (SMILES): Cc1cc(O)c2c(=O)c3c(O)cc(O)c4c5c(O)cc(O)c6c(=O)c7c(O)cc(C)c8c1c2c(c34)c(c78)c65 [Hypericin]
- mice in which all infectious titers in lung were eliminated ([4]; Hypericin 20 mg/kg, pre-treatment from two days prior to infection): 5 out of 7
- host cell viability, normalized to remdesivir alone (5 μM) (SARS-CoV-2 [5]; hypericin 1.563 μM, remdesivir 0 μM): 14.6%
- host cell viability, normalized to remdesivir alone (5 μM) (SARS-CoV-2 [5]; hypericin 3.125 μM, remdesivir 0 μM): 12.9%
- host cell viability, normalized to remdesivir alone (5 μM) (SARS-CoV-2 [5]; hypericin 6.25 μM, remdesivir 0 μM): 12.8%
- host cell viability, normalized to remdesivir alone (5 μM) (SARS-CoV-2 [5]; hypericin 12.5 μM, remdesivir 0 μM): 20.4%
- host cell viability, normalized to remdesivir alone (5 μM) (SARS-CoV-2 [5]; hypericin 25 μM, remdesivir 0 μM): 62.0%
- host cell viability, normalized to remdesivir alone (5 μM) (SARS-CoV-2 [5]; hypericin 50 μM, remdesivir 0 μM): 62.6%
- host cell viability, normalized to remdesivir alone (5 μM) (SARS-CoV-2 [5]; hypericin 100 μM, remdesivir 0 μM): 38.0%
- host cell viability (in words) (SARS-CoV-2 [5]; hypericin (25-50 μM) alone): modest improvements in host cell viability
- host cell viability (SARS-CoV-2 [5]; hypericin alone, 12.5-50 μM): 20-62%
